{"source": "PubChem BioAssay AID1845201", "about": "(Molecular Pharmacology Branch, DTP, NCI, 2023)", "test_system": "COR L88 complex tumor spheroid viability", "assay": "Anticancer human tumor COR L88 cell line growth inhibition;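 for all read-outs here: compound exposure lasted 7 days before viability readout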;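 for viability, T/C: percent of DMSO vehicle-treated spheroids = 100%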", "details": "for IC50: curve of first compound; for viability, T/C: stronger effect = lower value", "in_short": "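Single agents and combinations were tested on spheroids built from tumor cells plus HUVEC and hMSC, at half-log dilutions starting at or near clinical Cmax, else 10 microM; final DMSO 0.25% (v/v).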"}
{"smiles": "CC(C)n1c(=O)n(C)c2cnc3cc(F)c(-c4ccc(OCCCN5CCCCC5)nc4)cc3c21", "note": "+ CC[C@@]1(O)C(=O)OCc2c1cc1n(c2=O)Cc2cc3c(CN(C)C)c(O)ccc3nc2-1", "values": [{"measurement": "IC50", "setting": "second compound 0.003 µM", "result": 5160, "unit": "nM"}, {"measurement": "IC50", "setting": "second compound 0.00949 µM", "result": 157, "unit": "nM"}, {"measurement": "IC50", "setting": "second compound 0.03 µM", "result": "< 31.6", "unit": "nM"}, {"measurement": "IC50", "setting": "second compound 0.0949 µM", "result": "< 31.6", "unit": "nM"}, {"measurement": "IC50", "setting": "second compound 0.3 µM", "result": "< 31.6", "unit": "nM"}, {"measurement": "viability, T/C", "setting": "second compound 0.003 µM, first compound 0.0316 µM", "result": 85, "unit": "%"}, {"measurement": "viability, T/C", "setting": "second compound 0.003 µM, first compound 0.1 µM", "result": 94.2, "unit": "%"}, {"measurement": "viability, T/C", "setting": "second compound 0.003 µM, first compound 0.316 µM", "result": 76.9, "unit": "%"}, {"measurement": "viability, T/C", "setting": "second compound 0.003 µM, first compound 1 µM", "result": 80.6, "unit": "%"}, {"measurement": "viability, T/C", "setting": "second compound 0.003 µM, first compound 3.16 µM", "result": 68.2, "unit": "%"}, {"measurement": "viability, T/C", "setting": "second compound 0.003 µM, first compound 10 µM", "result": 26.9, "unit": "%"}, {"measurement": "viability, T/C", "setting": "second compound 0.00949 µM, first compound 0.0316 µM", "result": 51.9, "unit": "%"}, {"measurement": "viability, T/C", "setting": "second compound 0.00949 µM, first compound 0.1 µM", "result": 52.9, "unit": "%"}, {"measurement": "viability, T/C", "setting": "second compound 0.00949 µM, first compound 0.316 µM", "result": 48.2, "unit": "%"}, {"measurement": "viability, T/C", "setting": "second compound 0.00949 µM, first compound 1 µM", "result": 40.6, "unit": "%"}, {"measurement": "viability, T/C", "setting": "second compound 0.00949 µM, first compound 3.16 µM", "result": 33, "unit": "%"}, {"measurement": "viability, T/C", "setting": "second compound 0.00949 µM, first compound 10 µM", "result": 14.1, "unit": "%"}, {"measurement": "viability, T/C", "setting": "second compound 0.03 µM, first compound 0.0316 µM", "result": 46.5, "unit": "%"}, {"measurement": "viability, T/C", "setting": "second compound 0.03 µM, first compound 0.1 µM", "result": 42.1, "unit": "%"}, {"measurement": "viability, T/C", "setting": "second compound 0.03 µM, first compound 0.316 µM", "result": 37.3, "unit": "%"}, {"measurement": "viability, T/C", "setting": "second compound 0.03 µM, first compound 1 µM", "result": 29.7, "unit": "%"}, {"measurement": "viability, T/C", "setting": "second compound 0.03 µM, first compound 3.16 µM", "result": 30.6, "unit": "%"}, {"measurement": "viability, T/C", "setting": "second compound 0.03 µM, first compound 10 µM", "result": 14.2, "unit": "%"}, {"measurement": "viability, T/C", "setting": "second compound 0.0949 µM, first compound 0.0316 µM", "result": 38.6, "unit": "%"}, {"measurement": "viability, T/C", "setting": "second compound 0.0949 µM, first compound 0.1 µM", "result": 36.4, "unit": "%"}, {"measurement": "viability, T/C", "setting": "second compound 0.0949 µM, first compound 0.316 µM", "result": 30.2, "unit": "%"}, {"measurement": "viability, T/C", "setting": "second compound 0.0949 µM, first compound 1 µM", "result": 28.6, "unit": "%"}, {"measurement": "viability, T/C", "setting": "second compound 0.0949 µM, first compound 3.16 µM", "result": 27.2, "unit": "%"}, {"measurement": "viability, T/C", "setting": "second compound 0.0949 µM, first compound 10 µM", "result": 15.3, "unit": "%"}, {"measurement": "viability, T/C", "setting": "second compound 0.3 µM, first compound 0.0316 µM", "result": 44.3, "unit": "%"}, {"measurement": "viability, T/C", "setting": "second compound 0.3 µM, first compound 0.1 µM", "result": 42.7, "unit": "%"}, {"measurement": "viability, T/C", "setting": "second compound 0.3 µM, first compound 0.316 µM", "result": 39, "unit": "%"}, {"measurement": "viability, T/C", "setting": "second compound 0.3 µM, first compound 1 µM", "result": 34.5, "unit": "%"}, {"measurement": "viability, T/C", "setting": "second compound 0.3 µM, first compound 3.16 µM", "result": 27.7, "unit": "%"}, {"measurement": "viability, T/C", "setting": "second compound 0.3 µM, first compound 10 µM", "result": 14.7, "unit": "%"}]}
{"smiles": "Cn1ncnc1[C@H]1c2n[nH]c(=O)c3cc(F)cc(c23)N[C@@H]1c1ccc(F)cc1", "note": "+ CC[C@@]1(O)C(=O)OCc2c1cc1n(c2=O)Cc2cc3c(CN(C)C)c(O)ccc3nc2-1", "values": [{"measurement": "IC50", "setting": "second compound 0.003 µM", "result": 90.9, "unit": "nM"}, {"measurement": "IC50", "setting": "second compound 0.00949 µM", "result": "< 9.49", "unit": "nM"}, {"measurement": "IC50", "setting": "second compound 0.03 µM", "result": "< 9.49", "unit": "nM"}, {"measurement": "IC50", "setting": "second compound 0.0949 µM", "result": "< 9.49", "unit": "nM"}, {"measurement": "IC50", "setting": "second compound 0.3 µM", "result": "< 9.49", "unit": "nM"}, {"measurement": "viability, T/C", "setting": "second compound 0.003 µM, first compound 0.00949 µM", "result": 65.9, "unit": "%"}, {"measurement": "viability, T/C", "setting": "second compound 0.003 µM, first compound 0.03 µM", "result": 61.9, "unit": "%"}, {"measurement": "viability, T/C", "setting": "second compound 0.003 µM, first compound 0.0949 µM", "result": 47.4, "unit": "%"}, {"measurement": "viability, T/C", "setting": "second compound 0.003 µM, first compound 0.3 µM", "result": 42.4, "unit": "%"}, {"measurement": "viability, T/C", "setting": "second compound 0.003 µM, first compound 0.949 µM", "result": 41.1, "unit": "%"}, {"measurement": "viability, T/C", "setting": "second compound 0.003 µM, first compound 3 µM", "result": 38.3, "unit": "%"}, {"measurement": "viability, T/C", "setting": "second compound 0.00949 µM, first compound 0.00949 µM", "result": 49.7, "unit": "%"}, {"measurement": "viability, T/C", "setting": "second compound 0.00949 µM, first compound 0.03 µM", "result": 44, "unit": "%"}, {"measurement": "viability, T/C", "setting": "second compound 0.00949 µM, first compound 0.0949 µM", "result": 44.1, "unit": "%"}, {"measurement": "viability, T/C", "setting": "second compound 0.00949 µM, first compound 0.3 µM", "result": 43.1, "unit": "%"}, {"measurement": "viability, T/C", "setting": "second compound 0.00949 µM, first compound 0.949 µM", "result": 40.2, "unit": "%"}, {"measurement": "viability, T/C", "setting": "second compound 0.00949 µM, first compound 3 µM", "result": 40.6, "unit": "%"}, {"measurement": "viability, T/C", "setting": "second compound 0.03 µM, first compound 0.00949 µM", "result": 48.2, "unit": "%"}, {"measurement": "viability, T/C", "setting": "second compound 0.03 µM, first compound 0.03 µM", "result": 49.5, "unit": "%"}, {"measurement": "viability, T/C", "setting": "second compound 0.03 µM, first compound 0.0949 µM", "result": 43.2, "unit": "%"}, {"measurement": "viability, T/C", "setting": "second compound 0.03 µM, first compound 0.3 µM", "result": 41.5, "unit": "%"}, {"measurement": "viability, T/C", "setting": "second compound 0.03 µM, first compound 0.949 µM", "result": 38.1, "unit": "%"}, {"measurement": "viability, T/C", "setting": "second compound 0.03 µM, first compound 3 µM", "result": 36.5, "unit": "%"}, {"measurement": "viability, T/C", "setting": "second compound 0.0949 µM, first compound 0.00949 µM", "result": 41.2, "unit": "%"}, {"measurement": "viability, T/C", "setting": "second compound 0.0949 µM, first compound 0.03 µM", "result": 38.4, "unit": "%"}, {"measurement": "viability, T/C", "setting": "second compound 0.0949 µM, first compound 0.0949 µM", "result": 37.3, "unit": "%"}, {"measurement": "viability, T/C", "setting": "second compound 0.0949 µM, first compound 0.3 µM", "result": 34.9, "unit": "%"}, {"measurement": "viability, T/C", "setting": "second compound 0.0949 µM, first compound 0.949 µM", "result": 31.6, "unit": "%"}, {"measurement": "viability, T/C", "setting": "second compound 0.0949 µM, first compound 3 µM", "result": 24.5, "unit": "%"}, {"measurement": "viability, T/C", "setting": "second compound 0.3 µM, first compound 0.00949 µM", "result": 36, "unit": "%"}, {"measurement": "viability, T/C", "setting": "second compound 0.3 µM, first compound 0.03 µM", "result": 32.6, "unit": "%"}, {"measurement": "viability, T/C", "setting": "second compound 0.3 µM, first compound 0.0949 µM", "result": 32.4, "unit": "%"}, {"measurement": "viability, T/C", "setting": "second compound 0.3 µM, first compound 0.3 µM", "result": 26.9, "unit": "%"}, {"measurement": "viability, T/C", "setting": "second compound 0.3 µM, first compound 0.949 µM", "result": 24.6, "unit": "%"}, {"measurement": "viability, T/C", "setting": "second compound 0.3 µM, first compound 3 µM", "result": 17.4, "unit": "%"}]}
